Earlier results in patent publication US20030130179A1, “Methods for identifying therapeutic targets for treating infectious disease” (priority 2000, published 2003).

Experiments:
[1] = target: thymidylate synthase (TS) (Homo sapiens, UniProt P04818)
Sequence of thymidylate synthase (TS) (P04818 2-313 limits assumed): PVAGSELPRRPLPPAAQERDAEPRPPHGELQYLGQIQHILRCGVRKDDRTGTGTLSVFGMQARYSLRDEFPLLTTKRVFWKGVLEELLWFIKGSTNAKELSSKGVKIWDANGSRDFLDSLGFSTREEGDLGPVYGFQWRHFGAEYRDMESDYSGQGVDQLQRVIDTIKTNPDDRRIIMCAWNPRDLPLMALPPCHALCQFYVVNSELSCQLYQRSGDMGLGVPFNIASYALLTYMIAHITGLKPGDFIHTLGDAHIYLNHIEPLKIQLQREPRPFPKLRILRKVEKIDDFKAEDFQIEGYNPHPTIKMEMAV

SMILES: O=c1[nH]c(=O)n([C@@H]2O[C@H](CO)[C@@H](O)[C@H]2O)cc1F [5-fluorouridine]
- cytotoxicity profile ([1]; TS inhibitor, relation to TS expression (Copur et al., 1995)): more toxic to the cells which express low amounts of the enzyme

SMILES: COC(=O)[C@H](C)NP(=O)(OC[C@H]1O[C@@H](n2cc(/C=C/Br)c(=O)[nH]c2=O)C[C@@H]1O)Oc1ccccc1 (stereo partly shown) [NB1011]
- Cytotoxicity ([1]; model cell-based systems, relation to TS protein levels): proportional to TS protein levels
- toxicity to the host (colon and breast cancer; animal models): little or no toxicity to the host
- efficacy (colon and breast cancer; colon and breast cancer animal models): demonstrated efficacy against colon and breast cancer
